From BindingDB's records for doi:10.1016/j.bmcl.2019.01.031 (Merck, 2019)

Assays:
[1] = Inhibition of NS5A in HCV genotype 1b assessed as decrease in viral replication
[2] = Inhibition of NS5A in HCV genotype 3a assessed as decrease in viral replication
[3] = Inhibition of NS5A in HCV genotype 2b assessed as decrease in viral replication
[4] = Inhibition of NS5A in HCV genotype 1a assessed as decrease in viral replication
[5] = Inhibition of NS5A Y93H mutant in HCV genotype 1a assessed as decrease in viral replication
[6] = Inhibition of NS5A in HCV genotype 2a assessed as decrease in viral replication
[7] = Inhibition of NS5A in HCV genotype 4a assessed as decrease in viral replication
[8] = Inhibition of NS5A L31V mutant in HCV genotype 1a assessed as decrease in viral replication

SMILES | EC50 [1] [nM] | EC50 [2] [nM] | EC50 [3] [nM] | EC50 [4] [nM] | EC50 [5] [nM] | EC50 [6] [nM] | EC50 [7] [nM] | EC50 [8] [nM]
COC(=O)N[C@H](C(=O)N1CCC[C@H]1c1ncc(-c2ccc3c(ccc4oc5ccc(-c6cnc([C@@H]7CCCN7C(=O)[C@@H](NC(=O)OC)C(C)C)[nH]6)cc5c(=O)c43)c2)[nH]1)C(C)C | 0.1 | > 1 | > 100 | 0.2 | > 100 | – | – | –
COC(=O)N[C@H](C(=O)N1CCC[C@H]1c1ncc(-c2ccc3c(ccc4oc5cc(-c6cnc([C@@H]7CCCN7C(=O)[C@@H](NC(=O)OC)C(C)C)[nH]6)ccc5c(=O)c43)c2)[nH]1)C(C)C | 0.003 | > 1 | 14 | 0.003 | 18 | – | – | –
COC(=O)N[C@H](C(=O)N1CCC[C@H]1c1ncc(-c2ccc3c(c2)C(C)c2ccc4cc(-c5cnc([C@@H]6CCCN6C(=O)[C@@H](NC(=O)OC)C(C)C)[nH]5)ccc4c2O3)[nH]1)C(C)C (some centres not stated) | – | – | – | 0.0057 | 49 | – | – | –
CC[C@@H]1c2ccc(-c3cnc([C@@H]4CCCN4C(=O)[C@@H](NC(=O)OC)C(C)C)[nH]3)cc2Oc2ccc3cc(-c4cnc([C@@H]5CCCN5C(=O)[C@@H](NC(=O)OC)C(C)C)[nH]4)ccc3c21 | – | 1.7 | 13 | 0.0027 | 15 | – | – | –
CCC1c2ccc(-c3cnc([C@@H]4CCCN4C(=O)[C@@H](NC(=O)OC)C(C)C)[nH]3)cc2Oc2ccc(-c3cnc([C@@H]4CCCN4C(=O)[C@@H](NC(=O)OC)C(C)C)[nH]3)cc21 (some centres not stated) | 0.004 | 0.07 | – | 0.02 | 24 | 0.005 | – | –
COC(=O)N[C@H](C(=O)N1CCC[C@H]1c1ncc(-c2ccc3c(=O)c4cc(-c5cnc([C@@H]6CCCN6C(=O)[C@@H](NC(=O)OC)C(C)C)[nH]5)ccc4oc3c2)[nH]1)C(C)C | 0.002 | – | – | 0.01 | 1730 | 0.1 | – | –
CC[C@H]1c2ccc(-c3cnc([C@@H]4CCCN4C(=O)[C@@H](NC(=O)OC)C4CCOCC4)[nH]3)cc2Oc2ccc3cc(-c4cnc([C@@H]5CCCN5C[C@@H](NC(=O)OC)C5CCOCC5)[nH]4)ccc3c21 | – | 0.03 | – | 0.004 | 0.2 | – | – | –
COC(=O)N[C@H](C(=O)N1C[C@H](F)C[C@H]1c1ncc(-c2ccc3c(ccc4oc5cc(-c6cnc([C@@H]7C[C@@H](F)CN7C(=O)[C@@H](NC(=O)OC)C(C)C)[nH]6)ccc5c(=O)c43)c2)[nH]1)C(C)C | 0.0045 | > 1 | 90 | 0.029 | 1.2 | – | – | –
COC(=O)N[C@H](C(=O)N1CCC[C@H]1c1ncc(-c2ccc3c(c2)Oc2ccc4cc(-c5cnc([C@@H]6CCCN6C[C@@H](NC(=O)OC)C6CCOCC6)[nH]5)ccc4c2[C@H]3C)[nH]1)C1CCOCC1 | 0.004 | 0.04 | 0.02 | 0.004 | 0.4 | – | 0.009 | 0.03
COC(=O)N[C@H](C(=O)N1CCC[C@H]1c1ncc(-c2ccc3c(ccc4c(=O)c5cc(-c6cnc([C@@H]7CCCN7C(=O)[C@@H](NC(=O)OC)C(C)C)[nH]6)ccc5oc43)c2)[nH]1)C(C)C | – | – | – | 0.02 | 66 | – | – | –
CC[C@@H]1c2ccc(-c3cnc([C@@H]4CCCN4C(=O)[C@@H](NC(=O)OC)C4CCOCC4)[nH]3)cc2Oc2ccc3cc(-c4cnc([C@@H]5CCCN5C[C@@H](NC(=O)OC)C5CCOCC5)[nH]4)ccc3c21 | 0.004 | 0.2 | 0.3 | 0.01 | 0.8 | – | 0.01 | –
COC(=O)N[C@H](C(=O)N1C[C@H](F)C[C@H]1c1ncc(-c2ccc3c(ccc4oc5cc(-c6cnc([C@@H]7C[C@@H](F)CN7C(=O)[C@@H](NC(=O)OC)C7CCOCC7)[nH]6)ccc5c(=O)c43)c2)[nH]1)C1CCOCC1 | – | 5.8 | 3.5 | 0.084 | 0.18 | – | – | –
COC(=O)N[C@H](C(=O)N1CCC[C@H]1c1ncc(-c2ccc3c(c2)Oc2ccc4cc(-c5cnc([C@@H]6CCCN6C[C@@H](NC(=O)OC)C6CCOCC6)[nH]5)ccc4c2[C@@H]3C)[nH]1)C1CCOCC1 | 0.006 | 0.06 | 0.5 | 0.005 | 0.5 | – | 0.004 | 0.03
COC(=O)N[C@H](C(=O)N1CCC[C@H]1c1ncc(-c2ccc3c(c2)Oc2ccc4cc(-c5cnc([C@@H]6CCCN6C[C@@H](NC(=O)OC)C6CCOCC6)[nH]5)ccc4c2C3(C)C)[nH]1)C1CCOCC1 | 0.004 | 0.08 | 0.3 | 0.002 | 0.7 | – | 0.006 | –
CCN(CC)[C@@H](C(=O)N1C[C@H](F)C[C@H]1c1ncc(-c2ccc3c(ccc4oc5cc(-c6cnc([C@@H]7C[C@@H](F)CN7C(=O)[C@@H](c7ccccc7)N(CC)CC)[nH]6)ccc5c(=O)c43)c2)[nH]1)c1ccccc1 | – | 0.026 | 797 | 0.31 | 506 | – | – | –
COC(=O)N[C@H](C(=O)N1CCC[C@H]1c1ncc(-c2ccc3c(c2)Oc2ccc4cc(-c5cnc([C@@H]6CCCN6C(=O)[C@@H](NC(=O)OC)C(C)C)[nH]5)ccc4c2[C@@H]3C)[nH]1)C(C)C | 0.0036 | 1.4 | 37 | 0.0046 | 11 | – | – | –
CCC1(CC)c2ccc(-c3cnc([C@@H]4CCCN4C(=O)[C@@H](NC(=O)OC)C(C)C)[nH]3)cc2Oc2ccc3cc(-c4cnc([C@@H]5CCCN5C(=O)[C@@H](NC(=O)OC)C(C)C)[nH]4)ccc3c21 | – | 0.58 | 3.3 | 0.002 | 4.1 | – | – | –
COC(=O)N[C@H](C(=O)N1CCC[C@H]1c1nc(-c2ccc3c(c2)O[C@@H](c2ccccc2)n2c-3cc3cc(-c4c[nH]c([C@@H]5CCCN5C(=O)[C@@H](NC(=O)OC)C(C)C)n4)ccc32)c[nH]1)C(C)C [Elbasvir] | 0.003 | 0.02 | – | 0.004 | – | 0.003 | – | –
COC(=O)N[C@H](C(=O)N1CCC[C@H]1c1ncc(-c2ccc3c(ccc4oc5cc(-c6cnc([C@@H]7CCCN7C(=O)[C@@H](NC(=O)OC)C7CCOCC7)[nH]6)ccc5c(=O)c43)c2)[nH]1)C1CCOCC1 | – | 0.72 | 0.48 | 0.041 | 2 | – | – | –
COC(=O)N[C@H](C(=O)N1CCC[C@H]1c1ncc(-c2ccc3c(c2)Oc2ccc4cc(-c5cnc([C@@H]6CCCN6C(=O)[C@@H](NC(=O)OC)C(C)C)[nH]5)ccc4c2[C@H]3C)[nH]1)C(C)C | 0.0016 | 0.72 | 1.9 | 0.0022 | 7.2 | – | – | –
CC[C@H]1c2ccc(-c3cnc([C@@H]4CCCN4C(=O)[C@@H](NC(=O)OC)C(C)C)[nH]3)cc2Oc2ccc3cc(-c4cnc([C@@H]5CCCN5C(=O)[C@@H](NC(=O)OC)C(C)C)[nH]4)ccc3c21 | – | 1.1 | 0.78 | 0.005 | 12 | – | – | –
COC(=O)N[C@H](C(=O)N1CCC[C@H]1c1ncc(-c2ccc3c(c2)Oc2ccc4cc(-c5cnc([C@@H]6CCCN6C(=O)[C@@H](NC(=O)OC)C(C)C)[nH]5)ccc4c2C3(C)C)[nH]1)C(C)C | – | – | 11 | 0.0029 | 18 | – | – | –
COC(=O)N[C@H](C(=O)N1CCC[C@H]1c1ncc(-c2ccc3c(F)c4oc5ccc(-c6cnc([C@@H]7CCCN7C(=O)[C@@H](NC(=O)OC)C(C)C)[nH]6)cc5c(=O)c4cc3c2)[nH]1)C(C)C | > 1 | > 1 | > 100 | > 1 | > 100 | – | – | –
CCC1(CC)c2ccc(-c3cnc([C@@H]4CCCN4C(=O)[C@@H](NC(=O)OC)C(C)C)[nH]3)cc2Oc2cc3ccc(-c4cnc([C@@H]5CCCN5C(=O)[C@@H](NC(=O)OC)C(C)C)[nH]4)cc3cc21 | – | 1.1 | 4.5 | 0.002 | 3.3 | – | – | –
